This note sets out measurements from PubChem BioAssay (NCI).

Values joined by “and” are separate entries in the source; they are usually repeats but may differ in a detail not shown here. Identical values can stand only once.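 Grown in 96-well plates, cells were treated for 48 hours with each compound at five concentrations. Insufficient inhibition: endpoint recorded as highest concentration tested. GI50 = concentration required for 50% inhibition of growth. TGI is the concentration that stops growth completely.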

The assay deals with MDA-MB-468 breast. The experiment in a line: NCI anticancer screen, dose series, 48 h.
For `CCCCCCCCCCCCCCCCn1cc[n+](Cc2ccccc2)c1C`, the GI50 is 0.305 µM and the TGI stood at 0.84 µM.

Consider `O=C(Nc1cccc(-n2ccc3c(NC(=O)c4ccccc4)nccc32)c1)c1cc(N2CCOCC2)cc(C(F)(F)F)c1`, for which the GI50 is 0.0484 µM and the TGI was 1.42 µM.

With `Oc1ccc(CN(Cc2ccc(C(F)(F)F)cc2)Cc2ccc(O)c3ncccc23)c2cccnc12`, the GI50 is 0.0236 µM and the TGI was found to be 2.23 µM.

As for `CCCn1cnc2c(c1=N)C(c1ccc(OC)cc1)c1sc3c(C)cccc3c1O2` (stereo not given), the GI50 was 0.36 µM and the TGI was found to be 13.4 µM.

As for `O=[N+]([O-])/C=C/c1ccc([N+](=O)[O-])cc1`, the GI50 is 1.51 µM and the TGI was determined as 3.3 µM.

Consider `COc1ccc(/C=C\c2cc(OC)c(OC)c(OC)c2)cc1OCC(=O)Nc1nc2ccc(OC(F)(F)F)cc2s1`, for which the GI50 was 2.3 µM and the TGI worked out at 6.88 µM.

For the molecule `COC(=O)[C@@H]1CCCN1C(=O)[C@H]1CCCN1C(=O)[C@@H](Cc1c[nH]c2ccccc12)NC(=S)Nc1cc(C(F)(F)F)cc(C(F)(F)F)c1`, the GI50 was 2.15 µM and the TGI came to 6.94 µM.

Turning to `COc1ccc2[nH]cc(-c3nc(-c4c[nH]c5ccncc45)cs3)c2c1`, the GI50 is 1.78 µM and the TGI turned out to be 3.67 µM.

With `COC1[C@@H]2C[C@H]3C(C)(C)O[C@@](C/C=C(/C)C(=O)O)(C2=O)[C@]32Oc3c(CC=C(C)C)c4c(c(O)c3C(=O)[C@H]12)C=CC(C)(C)O4` (stereo not given in full), the GI50 was 7.46 µM and the TGI turned out to be 25 µM.

In the case of `Cc1ccccc1C(C(=O)NC1CCCCC1)N(C(=O)Cn1ccnc1C)c1cccc(F)c1` (stereo not given), the GI50 was > 100 µM and the TGI was > 100 µM.

On to `COc1ccc(-c2cc(-c3nnc(SCC(=O)Nc4ccc(C(C)=O)cc4)o3)c3ccccc3n2)cc1`, for which the GI50 was > 100 µM and the TGI is > 100 µM.

For `CCC(=O)c1ccc2c(c1)N(CCCN1CCN(CCO)CC1)c1ccccc1S2`, the GI50 is 10.5 µM and the TGI worked out at 23.5 µM.

`C=C(C)[C@@H]1CC[C@]2(C(=O)NCCNCCNCCN)CC[C@]3(C)[C@H](CC[C@@H]4[C@@]5(C)CCC(=O)C(C)(C)[C@@H]5CC[C@]43C)[C@@H]12`: the GI50 is 8.09 µM and the TGI turned out to be 16.1 µM.

As to `N=C(N)c1ccc(-c2ccc(-c3ccc(F)cc3)o2)o1`, the GI50 was 1.36 µM and the TGI worked out at 3 µM.

Regarding `CNCCOC(=O)/C=C1/CCC2C(C(O)CC3C(C)(C(=O)OC)CCCC23C)C1C` (stereo not given), the GI50 is 0.0377 µM and the TGI was found to be 0.148 µM.

Consider `C[C@@H]1COC(Nc2ccc3ncnc(Nc4ccc(OCc5nccs5)c(Cl)c4)c3c2)=N1`, for which the GI50 is 0.181 µM and 0.0396 µM; the TGI was 1.59 µM and 0.294 µM.

On to `Cc1cc(C)c2c(N)c3cccc(C)c3nc2n1`, for which the GI50 is 1.28 µM and the TGI was found to be 3.37 µM.

As for `Cc1ccc(C[P+](c2ccccc2)(c2ccccc2)c2ccccc2)cc1`, the GI50 is 0.172 µM and the TGI is 1.19 µM.

In the case of `COc1cc(OC)cc(-c2cncn2-c2ccc(-c3nc4cc(OC)cc(OC)c4s3)cc2)c1`, the GI50 was 3.17 µM and the TGI is > 100 µM.

`Cc1ccc(-c2cc3nc(C(Cl)Cl)nc(-c4ccco4)n3n2)cc1`: the GI50 was 0.566 µM and the TGI is 3.05 µM.

As for `COc1ccc(-c2nc3sc4c(c3c(=O)[nH]2)CCCC4)c2ccccc12`, the GI50 was 1.42 µM; the TGI was 5.55 µM and 8.96 µM.

With `O=[N+]([O-])c1cccc(-c2cc(-c3cc(Br)ccc3O)[nH]n2)c1`, the GI50 is 1.47 µM and the TGI was determined as 21.1 µM.

In the case of `COc1ccc(-c2ccccc2)cc1-c1c(Nc2cc(Cl)cc(Cl)c2O)c(=O)c1=O`, the GI50 was 1.13 µM and the TGI is 3.91 µM.

Consider `Cc1cc2nc3c4cccc(O)c4n(CCN(C)C)c3nc2cc1C`, for which the GI50 is 2.56 µM and the TGI was 8.19 µM.

For the molecule `COc1ccc(-c2csc3c2-n2cccc2C3=O)cc1O`, the GI50 was 0.397 µM and the TGI is 2.43 µM.

With `COc1cc2ncn(-c3cc(OCc4ccccc4S(C)(=O)=O)c(C#N)s3)c2cc1OC`, the GI50 was > 25 µM and the TGI was > 25 µM.

For `Cc1ccc(F)cc1NC(=O)c1cc(Cl)ccc1Nc1ccccc1`, the GI50 is > 100 µM and the TGI is > 100 µM.

Take `CCCCCCN1CCN(Cc2ccc(N(CC)CC)cc2)C(=O)C1=O`: the GI50 was 1.59 µM and the TGI is 16.1 µM.

In the case of `Nc1nc(-c2cccc([N+](=O)[O-])c2)c(N=Nc2ccc([N+](=O)[O-])cc2Cl)s1`, the GI50 is 0.131 µM and the TGI amounted to 0.711 µM.

For `CCN1CCC(CC(=O)Nc2n[nH]c3nc(-c4cccs4)c(Br)cc23)CC1`, the GI50 is 4.53 µM and the TGI amounted to 10.8 µM.

For `Oc1cc(Cl)ccc1Cc1ccc(Cl)cc1O`, the GI50 was 11.7 µM and the TGI is 35.5 µM.

Regarding `CC(C)CCC[C@@H](C)[C@H]1CCC2C3=CCC4C(=O)C=CC(=O)C4C3CC[C@@]21C` (stereo not given in full), the GI50 is 0.215 µM and the TGI came out at 0.57 µM.

In the case of `N/C(=N\c1nc2ccccc2s1)NC(=O)Nc1cccc2ccccc12`, the GI50 was 0.372 µM and the TGI is 22.7 µM.

For `CC(=O)NC1=CC(=O)c2cc(C)cc(O)c2C1=O`, the GI50 was 1.87 µM and the TGI was 5.98 µM.

In the case of `Cc1ccc(Oc2nc3ccccc3cc2-c2nnc(Cn3c(COc4ccccc4)nc4ccccc43)o2)cc1`, the GI50 is 3.95 µM and the TGI came to 18.3 µM.

As to `O=C(/C=C\c1ccc2ccccc2n1)c1cc(Cl)ccc1O`, the GI50 was 5.1 µM and the TGI amounted to 19.7 µM.

In the case of `Nc1ccc(-n2c(=O)oc3ccc(Cl)cc3c2=O)c(Cl)c1`, the GI50 is 0.0903 µM and the TGI came to 0.383 µM.

In the case of `Cc1cc(NC(=O)NC(=O)c2ccccc2NC(=O)CN)ccc1Oc1ncc(Br)cn1`, the GI50 was 0.065 µM and the TGI is 36.8 µM.

Turning to `O=C1OCC2=C1C(c1cccc(C(F)(F)F)c1)c1cc3c(cc1N2CCO)CCC3` (stereo not given), the GI50 is 0.127 µM and the TGI was 1.2 µM.

As to `COc1cc(-c2n/c(=C\c3c(O)[nH]c4ccccc34)cc3c2=Nc2ccccc2-3)cc(OC)c1OC`, the GI50 was 2.57 µM and the TGI was found to be 7.74 µM.
